From patent publication US9073954B2, “5-substituted benzimidazolium compounds” (Boehringer Ingelheim International GmbH, priority 2013, dated 2015)
Where two headings read alike, the source gives them in different places.

How the values were obtained:
[1] = biological target: T1, ENaC (Epithelial Sodium Channel) (Mus musculus, UniProt Q61180+Q9WU38+Q9WU39); test: Ussing chamber: short circuit current in M-1 cells; format: cell-based
T1 construct: Mouse kidney M-1 cells were cultivated in DMEM; endogenous in cells; host or cells: mouse kidney M-1 cells
T1 sequence (Q61180 1-699): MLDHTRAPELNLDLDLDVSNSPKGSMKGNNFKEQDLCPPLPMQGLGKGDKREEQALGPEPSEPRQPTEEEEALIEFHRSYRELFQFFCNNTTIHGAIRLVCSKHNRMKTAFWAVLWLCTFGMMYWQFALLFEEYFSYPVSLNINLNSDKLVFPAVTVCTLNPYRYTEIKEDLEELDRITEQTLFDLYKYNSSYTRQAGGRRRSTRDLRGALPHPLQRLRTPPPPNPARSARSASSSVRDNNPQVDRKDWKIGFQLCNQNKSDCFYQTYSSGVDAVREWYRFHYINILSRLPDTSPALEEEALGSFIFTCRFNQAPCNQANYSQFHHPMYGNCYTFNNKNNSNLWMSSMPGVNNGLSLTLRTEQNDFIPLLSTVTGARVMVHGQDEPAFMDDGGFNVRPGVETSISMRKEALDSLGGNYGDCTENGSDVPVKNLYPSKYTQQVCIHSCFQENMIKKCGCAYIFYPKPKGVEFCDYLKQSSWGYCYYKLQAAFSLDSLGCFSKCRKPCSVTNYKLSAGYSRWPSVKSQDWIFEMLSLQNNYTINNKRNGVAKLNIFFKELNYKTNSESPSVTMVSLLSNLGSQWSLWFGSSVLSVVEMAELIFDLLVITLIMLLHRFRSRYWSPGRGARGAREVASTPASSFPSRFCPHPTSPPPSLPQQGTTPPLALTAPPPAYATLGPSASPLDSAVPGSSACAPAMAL
T1 sequence (Q9WU38 1-638): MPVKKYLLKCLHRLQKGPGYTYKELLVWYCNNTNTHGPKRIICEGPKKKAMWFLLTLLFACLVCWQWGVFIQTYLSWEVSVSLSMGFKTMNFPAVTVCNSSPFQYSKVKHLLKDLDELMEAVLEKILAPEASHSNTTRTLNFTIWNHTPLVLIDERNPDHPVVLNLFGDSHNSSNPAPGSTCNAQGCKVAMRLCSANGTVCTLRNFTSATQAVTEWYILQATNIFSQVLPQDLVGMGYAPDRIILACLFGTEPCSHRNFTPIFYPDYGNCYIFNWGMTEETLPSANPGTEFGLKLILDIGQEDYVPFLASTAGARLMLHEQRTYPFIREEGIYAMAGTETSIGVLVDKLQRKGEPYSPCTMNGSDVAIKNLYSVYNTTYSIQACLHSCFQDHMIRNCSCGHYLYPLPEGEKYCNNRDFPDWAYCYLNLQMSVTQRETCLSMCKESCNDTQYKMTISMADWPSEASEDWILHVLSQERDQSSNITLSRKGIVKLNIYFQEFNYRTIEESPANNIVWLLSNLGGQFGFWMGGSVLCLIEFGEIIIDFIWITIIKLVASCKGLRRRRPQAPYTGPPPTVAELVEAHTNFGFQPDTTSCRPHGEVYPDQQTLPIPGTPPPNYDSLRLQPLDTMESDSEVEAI
T1 sequence (Q9WU39 1-655): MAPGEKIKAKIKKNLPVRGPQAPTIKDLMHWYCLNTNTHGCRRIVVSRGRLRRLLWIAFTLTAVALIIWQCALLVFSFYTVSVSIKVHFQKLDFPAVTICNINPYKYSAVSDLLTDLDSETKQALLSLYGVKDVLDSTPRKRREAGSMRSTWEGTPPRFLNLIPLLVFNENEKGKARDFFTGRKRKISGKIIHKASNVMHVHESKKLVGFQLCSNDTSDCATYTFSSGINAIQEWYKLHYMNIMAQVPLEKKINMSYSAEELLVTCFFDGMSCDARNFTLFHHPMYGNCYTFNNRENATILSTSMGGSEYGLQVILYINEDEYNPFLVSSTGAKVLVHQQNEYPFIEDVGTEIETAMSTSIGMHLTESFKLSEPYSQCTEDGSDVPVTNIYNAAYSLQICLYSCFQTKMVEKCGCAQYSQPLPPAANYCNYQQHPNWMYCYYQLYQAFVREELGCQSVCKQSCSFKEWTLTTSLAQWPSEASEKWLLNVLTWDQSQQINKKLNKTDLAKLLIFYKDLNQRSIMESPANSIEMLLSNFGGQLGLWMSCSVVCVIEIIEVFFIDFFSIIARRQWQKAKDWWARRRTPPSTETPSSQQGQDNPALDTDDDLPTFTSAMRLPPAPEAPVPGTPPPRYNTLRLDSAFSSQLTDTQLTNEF
Protocol: Mouse kidney M-1 cells were cultivated in DMEM containing 5% FCS and 5 μM dexamethasone for 10 to 12 days on polyester transwell filters. Filters were inserted into a teflon-coated well-plate which fit into the ussing chamber system. Prior to measurement the medium of M-1 cells was replaced with Caco-2 transport buffer (Invitrogen, Germany). During measurements, the Ussing chamber temperature was kept at 37° C. Short circuit currents (I_sc) were measured in the voltage-clamp mode with the software package Lab View for data acquisition and analysis. The transepithelial electrical resistance (TEER) was determined by the application of voltage steps of ±5 mV every 5 sec. Compounds were administered at a final concentration of 3 μM or at increasing concentrations (1-3-10 μM) to the apical solution. At the end of each experiment the amiloride sensitive I_SC was measured by adding 3 μM amiloride to the apical compartment. Results are expressed as inhibition in percent of the amiloride effect or as IC50.
With the example compounds given above, the following IC50 values were determined in the Ussing Chamber assay: […]

[2] = Permeability in CALU-3 cells; format: in vitro ADME; settings: human, CALU-3 monolayers, 10 μM compound, pH 7.4, 37° C.; for Papp A→B at 90 min, 10 μM: apical-to-basal; for Papp B→A at 90 min, 10 μM: basal-to-apical
Protocol: Permeability in CALU-3 Cells:
Permeability measurements across polarized, confluent CALU-3 cell monolayers grown on permeable filter supports are used to provide information on the potential of a compound to pass the lung epithelium. Apparent permeability coefficients (Papp) of the compounds across the CALU-3 cell monolayers are measured (pH 7.4, 37° C.) in apical-to-basal (AB) and basal-toapical (BA) transport direction.
CALU-3 cells (1-2×10^5 cells/1 cm^2 area) are seeded on filter inserts (Costar transwell polycarbonate filters, 0.4 μm pore size) and cultured (for 10-12 days DMEM) until tight monolayers are formed. Compounds of interest are dissolved in appropriate solvent (DMSO, 10 mM stock solution). Stock solutions are diluted with HTP-4 buffer (128.13 mM NaCl, 5.36 mM KC, 1 mM MgSO4, 1.8 mM CaCl2, 4.17 mM NaHCO3, 1.19 mM Na2HPO4×7H2O, 0.41 mM NaH2PO4xH2O, 15 mM HEPES, 20 mM glucose, 0.25% BSA, pH 7.4) to prepare the transport solutions (10 μM compound, final DMSO<=0.5%). The transport solution (TL) is applied to the apical or basolateral donor side for measuring A-B or B-A permeability (3 filter replicates), respectively. The receiver side contains the same buffer as the donor side. After 30 min of accommodation, samples are collected at the start t0=0 min and at the end of the experiment tn=90 min from the donor and at 0, 30, 60, and 90 min also from the receiver chamber. Volume removed is replenished by HTP-4 buffer. The compound concentration in the samples is measured by HPLC-MS/MS or scintillation counting. The permeability coefficient (Papp) and efflux ratio are calculated according to: Papp [cm/s]=(concentration receiver [nM]*volume receiver [mL]/time interval [sec])*(1/filter area)*(1/donor concentration [nM])
With example compounds given above, the following permeability values were determined in the CALU-3 cells assay: […]

[3] = Ussing chamber, mouse kidney M-1 cells, amiloride sensitive I_SC, apical application, 37° C., read-out: IC50

Row | SMILES | IC50 [1, 3] [nM] | other results
1 | CCOP(=O)([O-])CCCOc1ccc2c(c1)n(CC)c(CNC(=O)c1nc(Cl)c(N)nc1N)[n+]2CCOC [Example 1.1] | 11 | Papp A→B at 90 min, 10 μM [2]: 0.1 ×10⁻⁶ cm/s; Papp B→A at 90 min, 10 μM [2]: 0.03 ×10⁻⁶ cm/s
2 | CCn1c(CNC(=O)c2nc(Cl)c(N)nc2N)[n+](CC)c2cc(Cl)c(N(CCO)CCO)cc21 [Example 1.3] | 2 | –
3 | CCn1c(CNC(=O)c2nc(Cl)c(N)nc2N)[n+](CC)c2cc(Cl)c(O[C@H]3CO[C@H]4[C@@H]3OC[C@@H]4O)cc21 [Example 1.5] | 1 | Papp A→B at 90 min, 10 μM [2]: 0.3 ×10⁻⁶ cm/s; Papp B→A at 90 min, 10 μM [2]: 0.1 ×10⁻⁶ cm/s
4 | CCn1c(CNC(=O)c2nc(Cl)c(N)nc2N)[n+](C[C@H](C)O)c2cc(OCCN)ccc21 [Example 1.7] | 2 | Papp A→B at 90 min, 10 μM [2]: 0.03 ×10⁻⁶ cm/s; Papp B→A at 90 min, 10 μM [2]: 0.05 ×10⁻⁶ cm/s
5 | CCOP(=O)([O-])CCCOc1ccc2c(c1)n(CC)c(CNC(=O)c1nc(Br)c(N)nc1N)[n+]2CCOC [Example 2.1] | 16 | Papp A→B at 90 min, 10 μM [2]: 0.2 ×10⁻⁶ cm/s; Papp B→A at 90 min, 10 μM [2]: 0.08 ×10⁻⁶ cm/s
6 | CCOP(=O)(CCCOc1ccc2c(c1)n(CC)c(CNC(=O)c1nc(Cl)c(N)nc1N)[n+]2CC)OCC [Example 3.1] | 3 | –
7 | CCn1c(CNC(=O)c2nc(Cl)c(N)nc2N)[n+](CC)c2cc(Cl)c(OCCOCCOC)cc21 [Example 3.2] | 0.5 | –
8 | CCn1c(CNC(=O)c2nc(Cl)c(N)nc2N)[n+](CC)c2ccc(O[C@H](C)C(=O)N3CCNC(=O)C3)cc21 [Example 3.3] | 1 | –
9 | CC[n+]1c(CNC(=O)c2nc(Cl)c(N)nc2N)n(CCCCCO)c2cc(O)ccc21 [Example 3.7] | – | Papp A→B at 90 min, 10 μM [2]: 0.7 ×10⁻⁶ cm/s; Papp B→A at 90 min, 10 μM [2]: 0.3 ×10⁻⁶ cm/s
10 | CCOP(=O)(CCCOc1ccc2c(c1)n(CC)c(CNC(=O)c1nc(Cl)c(N)nc1N)[n+]2CCOC)OCC [Example 3.13] | – | IC50 [1]: 2 nM
11 | CCn1c(CNC(=O)c2nc(Cl)c(N)nc2N)[n+](CC)c2ccc(O[C@@H]3CO[C@H]4[C@@H]3OC[C@H]4O)cc21 [Example 3.15] | 3 | –
12 | CCNC(=O)c1cc2c(cc1OCC(=O)N1CCNCC1)n(CC)c(CNC(=O)c1nc(Cl)c(N)nc1N)[n+]2CC [Example 6.3] | 4 | –
13 | CCn1c(CNC(=O)c2nc(Cl)c(N)nc2N)[n+](CC)c2ccc(CNC(=O)COc3cc(C(=O)N[C@H]4CC[C@H](N(C)C)CC4)cc(C(=O)N[C@H]4CC[C@H](N(C)C)CC4)c3)cc21 [Example 11.1] | 2 | –

The next lines start with results.

Row | IC50 [1, 3] [nM] | SMILES | other results
14 | 9 | CCn1c(CNC(=O)c2nc(Cl)c(N)nc2N)[n+](CC)c2ccc(CNC(=O)OCC3c4ccccc4-c4ccccc43)cc21 [Example 1.2] | –
15 | 0.4 | CCn1c(CNC(=O)c2nc(Cl)c(N)nc2N)[n+](CC)c2ccc(OCCNC(=O)OC(C)(C)C)cc21 [Example 1.4] | –
16 | 1 | CCNC(=O)COc1ccc2c(c1)n(C(C)C)c(CNC(=O)c1nc(Cl)c(N)nc1N)[n+]2CC [Example 3.4] | –
17 | 0.5 | CCNC(=O)[C@@H](C)Oc1ccc2c(c1)n(CC)c(CNC(=O)c1nc(Cl)c(N)nc1N)[n+]2CC [Example 3.5] | Papp A→B at 90 min, 10 μM [2]: 1 ×10⁻⁶ cm/s; Papp B→A at 90 min, 10 μM [2]: 0.4 ×10⁻⁶ cm/s
18 | 1 | CCNC(=O)[C@H](C)Oc1ccc2c(c1)n(CC)c(CNC(=O)c1nc(Cl)c(N)nc1N)[n+]2CC [Example 3.6] | –
19 | 1 | CCn1c(CNC(=O)c2nc(Cl)c(N)nc2N)[n+](C)c2ccc(O)cc21 [Example 3.9] | –
20 | 0.2 | CCn1c(CNC(=O)c2nc(Cl)c(N)nc2N)[n+](CC)c2ccc(O)cc21 [Example 3.10] | –
21 | 0.3 | CCNC(=O)COc1ccc2c(c1)n(CC)c(CNC(=O)c1nc(Cl)c(N)nc1N)[n+]2CC [Example 3.14] | –
22 | 11 | CCn1c(CNC(=O)c2nc(Cl)c(N)nc2N)[n+](CC)c2ccc(OCCCP(=O)([O-])O)cc21 [Example 4.1] | –
23 | 5 | CCn1c(CNC(=O)c2nc(Cl)c(N)nc2N)[n+](CC)c2ccc(OCCNCC(=O)[O-])cc21 [Example 5.1] | –
24 | 1 | CCn1c(CNC(=O)c2nc(Cl)c(N)nc2N)[n+](CC)c2ccc(CN)cc21 [Example 6.1] | –
25 | 1 | CCn1c(CNC(=O)c2nc(Cl)c(N)nc2N)[n+](CC)c2ccc(OCCN)cc21 [Example 6.2] | –
26 | 0.4 | CCn1c(CNC(=O)c2nc(Cl)c(N)nc2N)[n+](CC)c2ccc(OCCNC(=O)C[N+](C)(C)C)cc21 [Example 8.1] | –
27 | 5 | CCn1c(CNC(=O)c2nc(Cl)c(N)nc2N)[n+](CC)c2ccc(CNC(=O)C[N+](C)(C)C)cc21 [Example 8.2] | –
28 | 2 | CCn1c(CNC(=O)c2nc(Cl)c(N)nc2N)[n+](CC)c2ccc(C[N+](C)(C)C)cc21 [Example 8.3] | –
29 | 2 | CCn1c(CNC(=O)c2nc(Cl)c(N)nc2N)[n+](CC)c2ccc(OCCNCC(=O)OC)cc21 [Example 9.1] | –
30 | 0.3 | CCn1c(CNC(=O)c2nc(Cl)c(N)nc2N)[n+](CC)c2ccc(OCCNC(=N)N)cc21 [Example 10.1] | –
